The values that follow come from US5614370A, “Assay to identify human C5a antagonists and agonists” (Merck & Co., Inc., priority 1994, dated 1997).

One may read the IC50 as the concentration needed to halve the response being measured.

“Also recorded” adds a separate entry of the source. Read-outs that look alike come from different tables or passages of the source. Non-standard residues stand in square brackets, D forms with d. Residues, ends and D or L forms follow the SMILES beside them. NMeF = CN[C@@H](Cc1ccccc1)C(=O)O; Cha = N[C@@H](CC1CCCCC1)C(=O)O; dCha = N[C@H](CC1CCCCC1)C(=O)O

Experiment [1] concerns the target T1, C5a receptor (Homo sapiens, UniProt P21730).
T1 construct: followed by a 20 μL aliquot of neutrophil membrane; endogenous in cells
T1 sequence (P21730 1-350): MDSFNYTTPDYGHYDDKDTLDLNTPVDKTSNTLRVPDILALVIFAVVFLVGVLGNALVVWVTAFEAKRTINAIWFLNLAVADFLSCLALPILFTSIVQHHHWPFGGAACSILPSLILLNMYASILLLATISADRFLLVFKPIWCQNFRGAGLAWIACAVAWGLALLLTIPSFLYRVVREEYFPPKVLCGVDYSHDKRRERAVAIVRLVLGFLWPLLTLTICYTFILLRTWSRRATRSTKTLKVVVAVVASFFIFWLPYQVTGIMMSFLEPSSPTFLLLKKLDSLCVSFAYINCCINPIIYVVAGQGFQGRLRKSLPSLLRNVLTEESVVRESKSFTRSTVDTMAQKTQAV
The experiment is described as follows: biochemical. In kind it is binding. As to the method: Initially, we attempted to conduct binding studies with ^125 I radiolabeled C009: ^125 I-Tyr Phe Lys Ala Cha Cha Leu dPhe Arg, SEQ.ID:1:, wherein Cha is cyclohexylalanine, and dPhe is the D isomer of phenylalanine. This compound is a C5a agonist displaying a Ki for C5a of 8 nM. The presence of the tyrosine allowed us to radioiodinate the peptide and establish a binding assay in which both C5a (IC50=0.1 nM) and unlabeled C009 (IC50 =10 nM) inhibit the binding of ^125 I-C009 with concentration dependencies similar to those obtained from competition experiments against ^125 I-C5a.
In FIG. 1, unlabeled C013 is used to compete with ^125 I-labeled C5a. […] In FIG. 2, the C013 is ^125 I labeled. Unlabeled C5a and unlabeled C013 are each used to compete the labeled C013 from C5a binding sites on the membranes. […] In FIG. 3a, ^125 I-C5a is competed from its binding site by unlabeled C064 and unlabeled, natural C5a (as opposed to recombinant C5a, which, however, may also obviously may be used for these purposes). […] In FIG. 3b, the inverse experiment is shown, wherein ^125 I-C064 is displaced by unlabeled C064 and unlabeled nC5a.
Peptide (5 nMoles) are added to 40μL of 0.1 M sodium phosphate, pH 7.6, in a tube, followed by 2 mCi of ^125 I in 20 μL. 10 μL of a freshly made 0.5 mg/mL solution of chloramine T is then added. After 30 seconds of incubation, 10 μL of a freshly prepared 2 mg/mL solution of Na2 S2 O3 is added, the tube is vortexed, and the sample loaded onto a Vydac C4 reverse phase column. The column is developed with a TFA/acetonitrile gradient and the iodinated peptide is isolated. The material is stored at 4° C. in the elution buffer.
To 205 μL binding buffer (50 mM HEPES, pH 7.2, containing 5 mM MgCl2, 1mM CaCl2, 0.5% BSA) in a polypropylene tube is added 30,000CPM of the ^125 I peptide in 20 μL, and 5 μL of a known dilution of the test compound or diluent, followed by a 20 μL aliquot of neutrophil membrane [equivalent to 500,000 neutrophils; Rollins, T.E. et al., J. Biol Chem. 260:7157 (1985); see also U.S. Pat. No. 5,177,190, herein incorporated by reference].
The assay mixture is incubated for 2 hours at 29° C. Binding buffer (2 mL) is then added, the tube is vortexed, and the contents filtered over a Wattmann GF/C filter soaked in 0.33% polyethylenimine. An additional aliquot of binding buffer (2 mL) is added to the tube to rinse the tube, and is then used to wash the filter. The filters are removed from the apparatus and counted. Non-specific backgrounds are determined by performing assays in the presence of either 10 nM C5a, or 1 μM unlabeled peptide. Compounds which inhibit the binding of the labeled peptide are considered to be potential active compounds.

For experiment [2], the system named is human neutrophils. The experiment is described as follows: Inhibition of C5a induced degranulation (MPO release). The class given is cell-based. As to the method: (§1) FIG. 7A and 7B. […] These concentrations of the stimulating agents released 22% and 19% of the total cellular MPO, respectively.
(§2) This assay was performed on human neutrophils as previously reported and it is a measure of C5a or peptide induced exocytosis (Rollins, T. E. and Springer, M. S. (1985) J. Biol. Chem. 260, 7157-7160).

Experiment [3] has as its system human neutrophil membranes. The experiment in a line: Inhibition of C5a stimulated GTPase activity. The class given is biochemical. As to the method: as §1
The method of Kupper et al. (Kupper, R. W., Dewald, B., Jakobs, K. H., Baggiolini, M. and Gierschik, P. (1992) Biochem. J. 282, 429-434) was adapted for use in microtiter plates. Neutrophil membranes were suspended in 50 mM triethanolamine-HCl, 5 mM MES, pH 7.3, containing 1 mM EDTA, 5 mM MgCl2, 143 mM NaCl, 0.16 % BSA, 1 mM ouabain, 1 mM AMP-PNP, 0.5 mM ATP, 2.5 U/mL creatine phosphokinase,. 10 mM creatine phosphate, 0.1 mM PMSF and 10 ng/mL each of leupeptin, aprotinin and chymostatin. 50 μL of membranes containing 1-5 μg protein were added to 50 μL of the same buffer containing the test agent and 0.25 μM [γ-^32 P]-GTP (2,000 cpm/pmol) in the wells of a U-shaped microtiter plate. After incubation for 15-30 rain at 29° C., 100 μL of a 10% (w/v) charcoal suspension in 100 mM H3 PO4 was added and plates were centrifuged at 2000 rpm for 5 min. 100 μL of the supernatant was transferred to an Optiplate microtiter plate and 100 μL of Microscint-40 scintillation cocktail was added. Plates were counted in a Packard TopCount microtiter plate counter.

In experiment [4] the test system is human neutrophils. The experiment is described as follows: Inhibition of IL-8 induced degranulation (specificity control). The class given is cell-based. The conditions noted are these: 8 nM IL-8, FIG. 7A. The procedure:
as §1, §2

Experiment [5] concerns degranulation. To be noted: Mollison et al., cited from earlier work.
In experiment [6] the test system is chemokinetic response. To be noted: Mollison et al.; cited from earlier work.
The test system of experiment [7] is neutrophils. The conditions noted are these: Drapeau et al.; cited from earlier work.
For experiment [8], the system named is C5a receptor. To be noted: literature; cited from earlier work.
The mark [9] stands for this setting: labeled ligand 125I-C009, read-out: IC50 for inhibition of binding of 125I-C009.

Consider `CC(C)C[C@H](NC(=O)[C@H](CC1CCCCC1)NC(=O)[C@H](CC1CCCCC1)NC(=O)[C@H](C)NC(=O)[C@H](CCCCN)NC(=O)[C@H](Cc1ccccc1)NC(=O)[C@@H](N)Cc1ccc(O)cc1)C(=O)N[C@H](Cc1ccccc1)C(=O)N[C@@H](CCCNC(=N)N)C(=O)O` [C009, Tyr Phe Lys Ala Cha Cha Leu dPhe Arg] (H-YFKA[Cha][Cha]L[dF]R-OH), for which, in experiment [1], the “change of binding affinity by radioiodination” value is given as “about a four-fold loss in binding affinity”. The IC50 in experiment [1] (setting [9]) worked out at 10 nM.

With `CN[C@@H](Cc1ccccc1)C(=O)N[C@@H](CCCCN)C(=O)N1CCC[C@H]1C(=O)N[C@H](CC1CCCCC1)C(=O)N[C@@H](Cc1c[nH]c2ccccc12)C(=O)N[C@H](CCCNC(=N)N)C(=O)O` [C089], the “inhibition of C5a stimulated degranulation in words” value in experiment [2] was “inhibits C5a stimulated degranulation”. For the same molecule, the IC50 in experiment [2] (FIG. 7A, challenge 0.4 nM C5a) turned out to be 100 nM; in experiment [3] (FIG. 7B, 3 nM C5a) it was 3000 nM. Further, the “inhibition of C5a stimulated G protein activation in words” value in experiment [3] was “inhibits C5a stimulated degranulation and G protein activation”. For the same molecule, in experiment [4], the “effect on IL-8 induced degranulation” value is “little effect on IL-8 induced degranulation”.

Consider `CN[C@@H](Cc1ccccc1)C(=O)N[C@@H](CCCCN)C(=O)N1CCC[C@H]1C(=O)N[C@H](CC1CCCCC1)C(=O)N[C@@H](CC1CCCCC1)C(=O)N[C@H](CCCNC(=N)N)C(=O)O` [C028, MePhe Lys Pro dCha Cha dArg] (H-[NMeF]KP[dCha][Cha][dR]-OH), for which the “degranulating activity in words” value in experiment [5] was “exhibited normal degranulating activity”.

For the molecule `CN[C@@H](Cc1ccccc1)C(=O)N[C@@H](CCCCN)C(=O)N1CCC[C@H]1C(=O)N[C@H](CC1CCCCC1)C(=O)N[C@@H](Cc1ccccc1)C(=O)N[C@H](CCCNC(=N)N)C(=O)O` [C026, NMeF--K--P-dCha-F-dR] (H-[NMeF]KP[dCha]F[dR]-OH), the “degranulating activity in words” value in experiment [5] is listed as “not only failed to stimulate degranulation, it acted as an antagonist for this property”; in experiment [5] (listed as NMeF--K--P-dCha-F-dR), “totally devoid of degranulating activity”. Moreover, in experiment [6], the chemokinetic response entry was “only a small chemokinetic response”. For the same molecule, in experiment [7], the “stimulation of superoxide release from neutrophils” value is listed as “failed to stimulate superoxide release from neutrophils”. Moreover, the “agonist properties in words” value in experiment [8] is on record as “reduced agonist properties; also recorded: behaved as an agonist in other assays”.

B1: C5a: 74 amino acid protein derived from the fifth component of serum complement during complement activation (protein, UniProt P01031 678-751, looked up)
C5a anaphylatoxin: TLQKKIEEIAAKYKHSVVKKCCYDGACVNNDETCEQRAARISLGPRCIKAFTECCVVASQLRANISHKDMQLGR
modifications: C5a anaphylatoxin
As for B1, the IC50 in experiment [1] (setting [9]) came out at 0.1 nM; in experiment [1] (labeled ligand 125I-C013, read-out: IC50 exhibited by the unlabeled ligand), 0.15 nM; in experiment [1] (labeled ligand 125I-C064, read-out: IC50 exhibited by the unlabeled ligand) it was 0.093 nM.
